Broadly, the inhibition is the change of the read-out against control, counted positive when it falls.

Assay [1] concerns the target Tyrosine-protein kinase Fer (Homo sapiens) (UniProt P16591). Description: Inhibition of FER conserved Lys2 (TSVAVKTCKEDLPQELK) in human PBMC at 0.1 uM.
Assay [2] addresses Ribosomal protein S6 kinase alpha-4 (Homo sapiens) (UniProt O75676). The assay is described as follows: Inhibition of MSK2 domain1 conserved Lys2 (DIKLENILLDSNGHVVLTDFGLSK) in human PBMC at 0.1 uM.
Assay [3] concerns the target Serine/threonine-protein kinase SIK3 (Homo sapiens) (UniProt Q9Y2K2). Description: Inhibition of QSK conserved Lys1 (VAIKIIDKTQLDEENLKK) in human PBMC at 1 uM.
In assay [4] the target is Inhibitor of nuclear factor kappa-B kinase subunit beta (Homo sapiens) (UniProt O14920). The assay is described as follows: Inhibition of IKKb conserved Lys2 (DLKPENIVLQQGEQR) in human PBMC at 0.1 uM.
The target in assay [5] is T1, Tyrosine-protein kinase JAK3 (Homo sapiens) (UniProt P52333).
T1 sequence (whole entry): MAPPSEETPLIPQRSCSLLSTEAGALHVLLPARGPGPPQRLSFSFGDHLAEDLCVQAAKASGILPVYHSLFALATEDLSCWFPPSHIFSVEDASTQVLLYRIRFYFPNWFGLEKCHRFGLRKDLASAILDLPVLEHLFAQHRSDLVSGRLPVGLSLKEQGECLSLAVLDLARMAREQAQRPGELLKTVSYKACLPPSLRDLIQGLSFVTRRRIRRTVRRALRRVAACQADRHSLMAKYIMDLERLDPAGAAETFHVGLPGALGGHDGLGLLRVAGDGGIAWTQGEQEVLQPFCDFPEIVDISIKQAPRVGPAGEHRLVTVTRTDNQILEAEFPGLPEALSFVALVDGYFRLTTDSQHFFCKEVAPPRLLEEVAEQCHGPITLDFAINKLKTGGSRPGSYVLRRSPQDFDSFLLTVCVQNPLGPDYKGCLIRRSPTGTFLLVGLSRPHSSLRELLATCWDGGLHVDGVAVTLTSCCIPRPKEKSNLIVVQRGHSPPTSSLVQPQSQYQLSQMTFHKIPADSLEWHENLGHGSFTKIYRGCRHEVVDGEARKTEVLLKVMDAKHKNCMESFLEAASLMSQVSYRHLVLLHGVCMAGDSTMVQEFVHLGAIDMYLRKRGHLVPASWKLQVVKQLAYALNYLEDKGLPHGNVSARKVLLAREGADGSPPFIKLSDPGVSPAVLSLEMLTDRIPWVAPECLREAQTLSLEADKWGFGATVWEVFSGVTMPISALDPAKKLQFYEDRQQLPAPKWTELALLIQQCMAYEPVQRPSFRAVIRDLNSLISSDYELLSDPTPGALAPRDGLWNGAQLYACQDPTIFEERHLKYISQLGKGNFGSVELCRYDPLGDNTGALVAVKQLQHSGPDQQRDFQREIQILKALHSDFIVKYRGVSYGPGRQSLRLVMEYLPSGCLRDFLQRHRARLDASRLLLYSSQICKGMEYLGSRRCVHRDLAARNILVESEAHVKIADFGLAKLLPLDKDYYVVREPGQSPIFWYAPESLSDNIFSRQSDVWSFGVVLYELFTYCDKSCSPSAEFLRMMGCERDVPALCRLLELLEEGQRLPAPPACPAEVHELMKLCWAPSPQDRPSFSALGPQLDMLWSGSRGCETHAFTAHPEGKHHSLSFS
The assay is described as follows: Inhibition of JAK3 domain2 conserved Lys1 (YDPLGDNTGALVAVKQLQHSGPDQQR) in human PBMC at 0.1 uM.

Assay [6] addresses Interleukin-1 receptor-associated kinase 1 (Homo sapiens) (UniProt P51617). Description: Inhibition of IRAK1 conserved Lys2 (AIQFLHQDSPSLIHGDIKSSNVLLDER) in human PBMC at 0.1 uM.
For assay [7], the target named is Serine/threonine-protein kinase ULK1 (Homo sapiens) (UniProt O75385). Description: Inhibition of ULK1 conserved Lys2 (DLKPQNILLSNPAGR) in human PBMC at 1 uM.
Sequence of Serine/threonine-protein kinase ULK1 (Homo sapiens) (O75385 whole entry): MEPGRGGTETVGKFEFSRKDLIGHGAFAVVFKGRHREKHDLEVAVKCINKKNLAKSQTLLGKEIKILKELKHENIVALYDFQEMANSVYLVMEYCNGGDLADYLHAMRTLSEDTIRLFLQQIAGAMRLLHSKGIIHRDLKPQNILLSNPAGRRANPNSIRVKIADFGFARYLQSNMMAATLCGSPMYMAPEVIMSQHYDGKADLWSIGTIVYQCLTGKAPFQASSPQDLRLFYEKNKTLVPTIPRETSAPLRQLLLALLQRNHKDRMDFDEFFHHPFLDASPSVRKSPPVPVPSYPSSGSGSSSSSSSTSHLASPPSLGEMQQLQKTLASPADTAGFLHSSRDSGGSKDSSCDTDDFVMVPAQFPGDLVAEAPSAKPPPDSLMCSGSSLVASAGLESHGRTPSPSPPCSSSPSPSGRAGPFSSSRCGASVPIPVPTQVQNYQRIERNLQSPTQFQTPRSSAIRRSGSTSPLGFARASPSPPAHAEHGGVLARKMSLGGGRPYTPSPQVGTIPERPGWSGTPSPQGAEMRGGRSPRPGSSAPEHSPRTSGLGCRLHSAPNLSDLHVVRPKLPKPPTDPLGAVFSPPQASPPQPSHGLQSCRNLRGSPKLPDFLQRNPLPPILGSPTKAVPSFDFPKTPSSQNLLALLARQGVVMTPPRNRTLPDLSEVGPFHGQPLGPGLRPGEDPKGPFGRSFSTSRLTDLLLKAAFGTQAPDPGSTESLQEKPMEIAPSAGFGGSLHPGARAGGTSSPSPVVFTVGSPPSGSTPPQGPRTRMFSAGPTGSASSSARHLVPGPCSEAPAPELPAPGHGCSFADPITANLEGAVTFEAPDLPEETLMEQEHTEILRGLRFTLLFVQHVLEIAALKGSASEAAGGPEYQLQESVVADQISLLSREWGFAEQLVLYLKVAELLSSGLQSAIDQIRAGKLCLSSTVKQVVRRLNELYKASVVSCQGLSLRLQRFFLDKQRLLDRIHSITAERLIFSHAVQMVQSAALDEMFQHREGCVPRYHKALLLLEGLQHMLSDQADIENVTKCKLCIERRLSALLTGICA
The target in assay [8] is Serine/threonine-protein kinase SMG1 (Homo sapiens) (UniProt Q96Q15). Description: Inhibition of SMG1 ATP binding site (SYPYLFKGLEDLHLDER) in human PBMC at 1 uM.
The target in assay [9] is Tyrosine-protein kinase Yes (Homo sapiens) (UniProt P07947). Description: Inhibition of YES activation Loop (QGAKFPIKWTAPEAALYGR) in human PBMC at 1 uM.
Sequence of Tyrosine-protein kinase Yes (Homo sapiens) (P07947 2-543 limits assumed): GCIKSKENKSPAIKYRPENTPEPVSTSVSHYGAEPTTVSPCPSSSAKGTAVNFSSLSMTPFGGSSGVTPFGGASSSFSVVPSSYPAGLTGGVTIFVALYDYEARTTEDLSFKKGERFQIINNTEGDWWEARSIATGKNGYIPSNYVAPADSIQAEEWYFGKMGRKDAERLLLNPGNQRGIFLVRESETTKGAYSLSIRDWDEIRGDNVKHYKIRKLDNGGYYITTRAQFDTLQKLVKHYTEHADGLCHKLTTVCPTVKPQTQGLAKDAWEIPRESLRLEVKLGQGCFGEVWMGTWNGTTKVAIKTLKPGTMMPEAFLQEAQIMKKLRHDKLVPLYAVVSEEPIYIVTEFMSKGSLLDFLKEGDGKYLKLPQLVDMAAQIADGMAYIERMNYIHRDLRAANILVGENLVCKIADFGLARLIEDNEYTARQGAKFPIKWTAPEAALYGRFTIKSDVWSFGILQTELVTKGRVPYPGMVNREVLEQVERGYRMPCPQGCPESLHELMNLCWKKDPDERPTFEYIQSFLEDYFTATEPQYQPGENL
In assay [10] the target is Serine/threonine-protein kinase Nek7 (Homo sapiens) (UniProt Q8TDX7). Description: Inhibition of NEK7 conserved Lys2 (DIKPANVFITATGVVK) in human PBMC at 0.1 uM.
Sequence of Serine/threonine-protein kinase Nek7 (Homo sapiens) (Q8TDX7 whole entry, looked up): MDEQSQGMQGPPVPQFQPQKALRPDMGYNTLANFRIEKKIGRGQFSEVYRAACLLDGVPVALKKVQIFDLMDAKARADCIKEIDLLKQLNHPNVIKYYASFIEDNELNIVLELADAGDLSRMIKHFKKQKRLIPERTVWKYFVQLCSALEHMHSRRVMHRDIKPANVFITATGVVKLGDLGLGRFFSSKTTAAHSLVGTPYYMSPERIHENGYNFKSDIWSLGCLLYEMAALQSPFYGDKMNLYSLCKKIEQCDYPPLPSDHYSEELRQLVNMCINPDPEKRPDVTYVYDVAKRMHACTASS
In assay [11] the target is Serine/threonine-protein kinase 24 (Homo sapiens) (UniProt Q9Y6E0). Description: Inhibition of MST3 conserved Lys2 (DIKAANVLLSEHGEVK) in human PBMC at 0.1 uM.
For assay [12], the target named is Serine/threonine-protein kinase tousled-like 1 (Homo sapiens) (UniProt Q9UKI8). The assay is described as follows: Inhibition of TLK1 conserved Lys2 (YLNEIKPPIIHYDLKPGNILLVDGTACGEIK) in human PBMC at 0.1 uM.
Sequence of Serine/threonine-protein kinase tousled-like 1 (Homo sapiens) (Q9UKI8 whole entry): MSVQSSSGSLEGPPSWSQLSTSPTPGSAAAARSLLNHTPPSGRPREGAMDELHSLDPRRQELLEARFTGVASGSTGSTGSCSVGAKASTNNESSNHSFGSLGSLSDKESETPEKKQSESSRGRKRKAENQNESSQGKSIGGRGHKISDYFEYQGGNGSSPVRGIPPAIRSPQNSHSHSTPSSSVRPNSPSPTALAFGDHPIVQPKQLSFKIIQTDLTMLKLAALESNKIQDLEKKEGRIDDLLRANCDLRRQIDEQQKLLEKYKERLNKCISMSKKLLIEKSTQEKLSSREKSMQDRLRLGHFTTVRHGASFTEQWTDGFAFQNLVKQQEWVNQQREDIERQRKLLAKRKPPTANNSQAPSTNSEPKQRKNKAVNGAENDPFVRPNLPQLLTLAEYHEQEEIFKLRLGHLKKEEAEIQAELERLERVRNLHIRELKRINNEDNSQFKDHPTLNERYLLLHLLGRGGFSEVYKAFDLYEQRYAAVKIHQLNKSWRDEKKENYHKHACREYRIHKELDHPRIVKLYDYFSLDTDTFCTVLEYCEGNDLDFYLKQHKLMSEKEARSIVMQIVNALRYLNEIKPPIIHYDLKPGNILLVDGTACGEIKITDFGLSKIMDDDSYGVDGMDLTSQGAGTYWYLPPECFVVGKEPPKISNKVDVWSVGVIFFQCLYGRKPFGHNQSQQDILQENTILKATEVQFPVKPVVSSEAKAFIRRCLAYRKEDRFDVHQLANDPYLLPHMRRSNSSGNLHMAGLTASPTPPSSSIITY
Assay [13] deals with RAC-beta serine/threonine-protein kinase (Homo sapiens) (UniProt P31751). The assay is described as follows: Inhibition of AKT2 labeling at ATP binding site (GTFGKVILVR) in human PBMC at 1 uM.
For assay [14], the target named is Serine/threonine-protein kinase TBK1 (Homo sapiens) (UniProt Q9UHD2). The assay is described as follows: Inhibition of TBK1 conserved Lys2 (DIKPGNIMR) in human PBMC at 0.1 uM.
Sequence of Serine/threonine-protein kinase TBK1 (Homo sapiens) (Q9UHD2 whole entry): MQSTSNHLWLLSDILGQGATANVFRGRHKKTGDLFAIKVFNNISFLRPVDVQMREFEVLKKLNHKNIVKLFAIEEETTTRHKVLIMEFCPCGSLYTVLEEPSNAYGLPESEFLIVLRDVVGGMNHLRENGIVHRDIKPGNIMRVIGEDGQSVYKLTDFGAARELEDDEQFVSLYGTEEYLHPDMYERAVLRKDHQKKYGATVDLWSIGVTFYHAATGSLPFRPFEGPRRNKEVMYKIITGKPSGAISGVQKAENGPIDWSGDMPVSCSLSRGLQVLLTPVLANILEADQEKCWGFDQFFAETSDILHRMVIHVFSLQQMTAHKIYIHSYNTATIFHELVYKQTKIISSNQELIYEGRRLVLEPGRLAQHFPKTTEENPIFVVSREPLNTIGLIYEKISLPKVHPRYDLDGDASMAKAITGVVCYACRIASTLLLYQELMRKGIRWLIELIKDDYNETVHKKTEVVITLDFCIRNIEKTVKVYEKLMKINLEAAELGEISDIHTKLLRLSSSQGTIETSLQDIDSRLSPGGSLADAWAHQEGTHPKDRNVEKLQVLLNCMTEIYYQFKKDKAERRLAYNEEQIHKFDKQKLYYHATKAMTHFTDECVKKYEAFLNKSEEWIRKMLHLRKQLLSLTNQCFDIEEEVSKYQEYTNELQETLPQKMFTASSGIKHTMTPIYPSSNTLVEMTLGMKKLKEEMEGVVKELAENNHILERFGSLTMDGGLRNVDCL

Molecules are shown by their SMILES.

Sequence of Ribosomal protein S6 kinase alpha-4 (Homo sapiens) (O75676 whole entry, looked up, the tested form may be a part): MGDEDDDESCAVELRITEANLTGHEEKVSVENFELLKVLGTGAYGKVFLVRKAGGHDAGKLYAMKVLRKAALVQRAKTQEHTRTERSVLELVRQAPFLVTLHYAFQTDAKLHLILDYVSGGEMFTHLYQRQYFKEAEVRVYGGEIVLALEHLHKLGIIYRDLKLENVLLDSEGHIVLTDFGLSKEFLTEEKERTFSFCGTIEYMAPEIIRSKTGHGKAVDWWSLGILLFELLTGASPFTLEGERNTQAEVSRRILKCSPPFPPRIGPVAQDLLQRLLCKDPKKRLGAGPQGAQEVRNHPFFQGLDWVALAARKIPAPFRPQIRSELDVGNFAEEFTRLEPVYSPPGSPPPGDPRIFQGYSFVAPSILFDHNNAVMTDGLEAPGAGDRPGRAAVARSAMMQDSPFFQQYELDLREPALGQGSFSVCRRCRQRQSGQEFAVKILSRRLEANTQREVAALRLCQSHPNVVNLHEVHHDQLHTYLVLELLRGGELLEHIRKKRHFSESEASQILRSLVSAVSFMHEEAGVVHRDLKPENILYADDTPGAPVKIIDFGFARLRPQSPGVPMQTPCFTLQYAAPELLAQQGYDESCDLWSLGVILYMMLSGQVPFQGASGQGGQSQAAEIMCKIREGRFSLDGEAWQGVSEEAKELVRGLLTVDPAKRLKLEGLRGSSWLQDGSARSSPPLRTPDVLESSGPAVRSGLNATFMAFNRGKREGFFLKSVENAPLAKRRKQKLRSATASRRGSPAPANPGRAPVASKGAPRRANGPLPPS
Sequence of Tyrosine-protein kinase Fer (Homo sapiens) (P16591 whole entry, looked up, the tested form may be a part): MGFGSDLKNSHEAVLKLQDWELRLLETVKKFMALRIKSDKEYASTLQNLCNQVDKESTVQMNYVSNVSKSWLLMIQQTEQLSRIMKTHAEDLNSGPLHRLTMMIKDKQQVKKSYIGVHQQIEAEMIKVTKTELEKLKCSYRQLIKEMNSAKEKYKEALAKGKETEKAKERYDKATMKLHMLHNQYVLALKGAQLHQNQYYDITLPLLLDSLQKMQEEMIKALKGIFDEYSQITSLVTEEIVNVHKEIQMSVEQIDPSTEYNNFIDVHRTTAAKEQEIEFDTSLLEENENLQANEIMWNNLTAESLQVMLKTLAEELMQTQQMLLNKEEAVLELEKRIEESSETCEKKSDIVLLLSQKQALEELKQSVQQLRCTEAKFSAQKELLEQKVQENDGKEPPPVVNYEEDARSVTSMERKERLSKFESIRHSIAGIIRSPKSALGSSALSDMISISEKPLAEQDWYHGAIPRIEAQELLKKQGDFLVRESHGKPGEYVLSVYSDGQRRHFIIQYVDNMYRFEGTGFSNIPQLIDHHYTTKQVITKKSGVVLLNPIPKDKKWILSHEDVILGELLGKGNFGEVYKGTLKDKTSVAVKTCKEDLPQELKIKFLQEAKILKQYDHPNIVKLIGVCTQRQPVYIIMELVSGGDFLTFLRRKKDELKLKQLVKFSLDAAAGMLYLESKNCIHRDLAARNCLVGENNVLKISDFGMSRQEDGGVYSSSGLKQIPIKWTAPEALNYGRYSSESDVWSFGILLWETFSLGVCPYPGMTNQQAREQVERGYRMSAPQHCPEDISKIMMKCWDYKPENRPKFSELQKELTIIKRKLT

`CC(C)n1cc(-c2cc(-c3ccc(CN4CCOCC4)cc3)cnc2N)nn1`: the inhibition in assay [1] is -1.2%; in [2], 31.2%; in assay [3], 4%; in assay [4], 1.5%; in assay [5], -8%; in assay [6] it was 22.7%. Moreover, the inhibition in assay [7] is 10.8%; in assay [8], 6.6%; in assay [9] it was -2.3%; in [10], -4.8%; in [11], 11%; in [12], -3.1%. In addition, the inhibition in assay [13] worked out at 20.5%; in assay [14], 21.7%.

(Values after ChEMBL document CHEMBL4043168, “The design and SAR of a novel series of 2-aminopyridine based LRRK2 inhibitors” (Bioorg Med Chem Lett, 2017).)
